Key:
4T1 cells = experiment: 4T1 triple negative breast cancer model in BALB/c mice; assay type: in vivo
Experimental: Female BALB/c mice were administered 4T1 cells at a concentration of 1 million cells per mouse. VALLOVAX™ at a concentration of 500,000 cells per mouse was administered alone, RU-486 was administered alone (25 μg/g dose) and in combination of RU-486 and VALLOVAX™.

T cell = T cell reactivity in vitro after RU-486 administration (4T1 model); assay type: cell-based; settings: administration of RU-486

`CC#C[C@]1(O)CC[C@H]2[C@@H]3CCC4=CC(=O)CCC4=C3[C@@H](c3ccc(N(C)C)cc3)C[C@@]21C` [RU-486, mifepristone] was tested, and the “Breast cancer induced myeloid suppressor cells” value (4T1 cells; administration of RU-486) was “decreased”, the “Generation of CD8 cells capable of adoptively transferring immunity” value (4T1 cells; administration of RU-486) was “enhance” and the “Therapeutic activity of ValloVax” value (4T1 cells; triple negative breast cancer 4T1 model) was “enhances”. For the same compound, the “T cell reactivity in vitro” value (T cell) was “increased”.

From patent US20240269148A1, “Enhancement of Anti-Angiogenic Cancer Immunotherapy by Abortogenic Agents” (Therapeutic Solutions International, Inc., priority 2023, published 2024)
